Drawing on patent publication US12043632B2, “6-heteroaryloxy benzimidazoles and azabenzimidazoles as JAK2 inhibitors” (Ajax Therapeutics, Inc., priority 2020, dated 2024), this text covers Kd for 34 molecules.

Molecules are shown by their SMILES. Where only a bound is given, the exact number is not on record here.

T1 sequence (O60674 849-1124 Y1007F/Y1008F limits assumed): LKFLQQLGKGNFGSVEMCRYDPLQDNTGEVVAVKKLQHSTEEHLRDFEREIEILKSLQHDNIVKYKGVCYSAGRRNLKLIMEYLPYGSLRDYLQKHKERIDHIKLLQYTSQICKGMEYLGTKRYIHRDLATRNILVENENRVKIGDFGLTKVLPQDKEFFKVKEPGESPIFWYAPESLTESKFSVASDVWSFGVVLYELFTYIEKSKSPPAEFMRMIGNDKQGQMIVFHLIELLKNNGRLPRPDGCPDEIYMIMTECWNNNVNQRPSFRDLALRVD

This test concerns the target T1, JAK2 (JH1domain-catalytic, Y1007F,Y1008F) kinase (Homo sapiens, UniProt O60674, Y1007F/Y1008F).
T1 construct: JAK2 (JH1domain-catalytic, Y1007F,Y1008F) kinase was expressed as N-terminal fusion; made in house; host or cells: transiently transfected HEK293 cells
Description: JAK2 JH1 Domain Binding Assay. The following applies: qPCR readout. On the technique in general: In qPCR the cycle at which signal appears reflects the starting amount.
In the case of `COc1c(Oc2cnn3ccncc23)cnc2nc(Nc3cc(C4CC4)cn([C@H]4CC[C@H]4O)c3=O)n(C)c12` (single isomer, unassigned) [Example I-104-b], the Kd (as a rule, the concentration at which binding is half-saturated) is below 10 nM.
`Cn1c(Nc2cc(C(F)(F)F)cn([C@H]3CC[C@@H]3O)c2=O)nc2ncc(Oc3cnn4ccncc34)c(Cl)c21` (single isomer, unassigned) [Example I-105-a] displayed a Kd below 10 nM.
Take `Cn1c(Nc2cc(C(F)(F)F)cn([C@@H]3CC[C@H]3O)c2=O)nc2ncc(Oc3cnn4ccncc34)c(Cl)c21` (single isomer, unassigned) [Example I-105-b]: the equilibrium dissociation constant (Kd) is below 10 nM.
`Cn1c(Nc2cc(C(F)(F)F)cn([C@@H]3CCCOC3)c2=O)nc2ncc(Oc3cnn4ccncc34)c(Cl)c21` (single isomer, unassigned) [Example I-107-a] came in with a Kd below 10 nM.
With `Cn1c(Nc2cc(C(F)(F)F)cn([C@H]3CCCOC3)c2=O)nc2ncc(Oc3cnn4ccncc34)c(Cl)c21` (single isomer, unassigned) [Example I-107-b], the Kd is below 10 nM.
`COc1c(Oc2cnn3ccncc23)cnc2nc(Nc3cc(C4CC4)cn([C@H]4CC[C@@H]4O)c3=O)n(C)c12` (single isomer, unassigned) [Example I-110-a]: the Kd is below 10 nM.
In the case of `COc1c(Oc2cnn3ccncc23)cnc2nc(Nc3cc(C4CC4)cn([C@@H]4CC[C@H]4O)c3=O)n(C)c12` (single isomer, unassigned) [Example I-110-b] it was 10 to 50 nM; in that of `COc1c(Oc2cnn3ccncc23)cnc2nc(Nc3cc(C(F)(F)F)cn([C@H]4CC[C@@H]4O)c3=O)n(C)c12` (single isomer, unassigned) [Example I-113-a], 10 to 50 nM.
In turn, `COc1c(Oc2cnn3ccncc23)cnc2nc(Nc3cc(C(F)(F)F)cn([C@@H]4CC[C@H]4O)c3=O)n(C)c12` (single isomer, unassigned) [Example I-113-b] displayed a dissociation constant Kd of 10 to 50 nM.
With `Cn1c(Nc2cc(C3CC3)cn([C@@H]3CC[C@@H]3O)c2=O)nc2ncc(Oc3cnn4ccccc34)c(Cl)c21` (single isomer, unassigned) [Example I-114-a], the dissociation constant Kd was below 10 nM.
On to `Cn1c(Nc2cc(C3CC3)cn([C@H]3CC[C@H]3O)c2=O)nc2ncc(Oc3cnn4ccccc34)c(Cl)c21` (single isomer, unassigned) [Example I-114-b], for which the Kd is below 10 nM.
Consider `Cn1c(Nc2cc(C(F)(F)F)cn([C@@H]3CC[C@@H]3O)c2=O)nc2ncc(Oc3cnn4ccncc34)c(Cl)c21` (single isomer, unassigned) [Example I-119-a], for which the Kd is below 10 nM.
In the case of `Cn1c(Nc2cc(C(F)(F)F)cn([C@H]3CC[C@H]3O)c2=O)nc2ncc(Oc3cnn4ccncc34)c(Cl)c21` (single isomer, unassigned) [Example I-119-b] it was below 10 nM; in that of `COc1c(Oc2cnn3ccncc23)cnc2nc(Nc3cc(C4CC4)cn([C@@H](C)CC#N)c3=O)n(C)c12` (single isomer, unassigned) [Example I-121-a], below 10 nM; in that of `COc1c(Oc2cnn3ccncc23)cnc2nc(Nc3cc(C4CC4)cn([C@H](C)CC#N)c3=O)n(C)c12` (single isomer, unassigned) [Example I-121-b], below 10 nM.
In the case of `COc1c(Oc2cnn3ccccc23)cnc2nc(Nc3cc(C4CC4)cn([C@@H]4CC[C@H]4O)c3=O)n(C)c12` (single isomer, unassigned) [Example I-122-a], the dissociation constant Kd was below 10 nM.
`COc1c(Oc2cnn3ccccc23)cnc2nc(Nc3cc(C4CC4)cn([C@H]4CC[C@@H]4O)c3=O)n(C)c12` (single isomer, unassigned) [Example I-122-b] registered a Kd below 10 nM.
As for `COc1c(Oc2cnn3ccccc23)cnc2nc(Nc3cc(C4CC4)cn([C@@H]4CC[C@@H]4O)c3=O)n(C)c12` (single isomer, unassigned) [Example I-131-a], the Kd was below 10 nM.
With `COc1c(Oc2cnn3ccccc23)cnc2nc(Nc3cc(C4CC4)cn([C@H]4CC[C@H]4O)c3=O)n(C)c12` (single isomer, unassigned) [Example I-131-b] the figure was 10 to 50 nM.
With `Cn1cc(C2CC2)cc(Nc2nc3ncc(Oc4cnn5ccnc(O[C@@H]6CC[C@H]6O)c45)c(Cl)c3n2C)c1=O` (single isomer, unassigned) [Example I-133-a] the figure was below 10 nM; with `Cn1cc(C2CC2)cc(Nc2nc3ncc(Oc4cnn5ccnc(O[C@H]6CC[C@@H]6O)c45)c(Cl)c3n2C)c1=O` (single isomer, unassigned) [Example I-133-b], below 10 nM; with `Cn1cc(C(F)(F)F)cc(Nc2nc3ncc(Oc4cnn5ccnc(O[C@@H]6CC[C@H]6O)c45)c(Cl)c3n2C)c1=O` (single isomer, unassigned) [Example I-139-a], below 10 nM.
Molecule `Cn1cc(C(F)(F)F)cc(Nc2nc3ncc(Oc4cnn5ccnc(O[C@H]6CC[C@@H]6O)c45)c(Cl)c3n2C)c1=O` (single isomer, unassigned) [Example I-139-b] returned a dissociation constant Kd below 10 nM.
`Cn1c(Nc2cc(C(C)(C)C)n([C@H]3CC[C@H]3O)n2)nc2ncc(Oc3cnn4ccncc34)c(Cl)c21` (single isomer, unassigned) [Example I-147-a]: the Kd is below 10 nM.
`Cn1c(Nc2cc(C(C)(C)C)n([C@@H]3CC[C@@H]3O)n2)nc2ncc(Oc3cnn4ccncc34)c(Cl)c21` (single isomer, unassigned) [Example I-147-b] displayed a Kd below 10 nM.
`Cn1c(Nc2cc(C3CC3)nn([C@@H]3CCCOC3)c2=O)nc2ncc(Oc3cnn4ccccc34)c(Cl)c21` (single isomer, unassigned) [Example I-148-a] gave a dissociation constant (Kd) below 10 nM.
With `Cn1c(Nc2cc(C3CC3)nn([C@H]3CCCOC3)c2=O)nc2ncc(Oc3cnn4ccccc34)c(Cl)c21` (single isomer, unassigned) [Example I-148-b] the figure was 10 to 50 nM; with `Cn1c(Nc2cc(C(C)(C)C)n([C@H]3COC[C@@H]3O)n2)nc2ncc(Oc3cnn4ccncc34)c(C#N)c21` (single isomer, unassigned) [Example I-150-a], 10 to 50 nM; with `Cn1c(Nc2cc(C(C)(C)C)n([C@@H]3COC[C@H]3O)n2)nc2ncc(Oc3cnn4ccncc34)c(C#N)c21` (single isomer, unassigned) [Example I-150-b], 10 to 50 nM.
In the case of `CNc1nccn2ncc(Oc3cnc4nc(Nc5cc(C(F)(F)F)cn([C@H]6CCCOC6)c5=O)n(C)c4c3Cl)c12` (single isomer, unassigned) [Example I-245-a] it was below 10 nM; in that of `CNc1nccn2ncc(Oc3cnc4nc(Nc5cc(C(F)(F)F)cn([C@@H]6CCCOC6)c5=O)n(C)c4c3Cl)c12` (single isomer, unassigned) [Example I-245-b], 10 to 50 nM; in that of `CNc1nccn2ncc(Oc3cnc4nc(Nc5cc(C(F)(F)F)cn([C@H]6CCOC6)c5=O)n(C)c4c3Cl)c12` (single isomer, unassigned) [Example I-262-a], below 10 nM.
Take `CNc1nccn2ncc(Oc3cnc4nc(Nc5cc(C(F)(F)F)cn([C@@H]6CCOC6)c5=O)n(C)c4c3Cl)c12` (single isomer, unassigned) [Example I-262-b]: the equilibrium dissociation constant (Kd) is below 10 nM.
`CN1C[C@@H](F)[C@H](n2nc(Nc3nc4ncc(Oc5cnn6ccncc56)c(Cl)c4n3C)cc2C(C)(C)C)C1` (single isomer, unassigned) [Example I-267-a]: the dissociation constant Kd lay within 10 to 50 nM.
